# Assay results published in the CATMoS acute toxicity set (Mansouri et al. 2021).
# Assay: GHS categories as the set defines them, by LD50: 1 up to 5, 2 up to 50, 3 up to 300, 4 up to 2000, 5 above 2000 mg/kg
# Conditions: rat; in vivo; po
row,Compound,GHS category
1,CO[C@@H]1[C@@H](O[C@@H]2O[C@H](C)[C@@H](O[C@H]3C[C@@](C)(O)[C@@H](O)[C@H](C)O3)[C@H](N(C)C)[C@H]2O)[C@@H](CC=O)C[C@@H](C)[C@@H](O[C@@H]2CC[C@H](N(C)C)[C@@H](C)O2)C=CC=CC[C@@H](C)OC(=O)C[C@H]1OC(C)=O,5
2,Oc1ccc(OCc2ccccc2)cc1,5
3,CCCCC(=O)O[C@]1(C(=O)COC(C)=O)CC[C@H]2[C@@H]3CCC4=CC(=O)C=C[C@]4(C)[C@H]3[C@@H](O)C[C@@]21C,5
4,CCOC(=O)NC1CCCN(c2nc(N)c3cc(OC)c(OC)cc3n2)C1 (stereo not given),4
5,CCOC(=O)C(=O)Nc1cc(OC)ncn1,4
6,Nc1nc(COc2ccc(Cl)cc2)nc(NCCc2ccccc2)n1,5
7,CCCCCOC(=O)CCCC,5
8,CC(=O)Oc1ccc(C(c2ccc(OS(=O)(=O)O)cc2)c2ccccn2)cc1 (stereo not given),5
9,CCC1(CO)COC1,5
10,Cc1cc(CCCCCCCOc2ccc(C3=NCCO3)cc2)on1,5
11,CCN1CCN(C(=O)N[C@@H](C(=O)N[C@@H]2C(=O)N3[C@@H]2SC(C)(C)[C@H]3C(=O)O)c2ccccc2)C(=O)C1=O,5
12,CCCCCCCOCCCCN1CCCCCC1=O,5
13,CCCCCCCCCCCCCCCCCC(=O)OC(CO)COC(=O)CCCCCCCCCCCCCCC (stereo not given),5
14,OCC(CBr)(CBr)CBr,5
15,CNC(=O)c1cc(Cl)cc(C)c1NC(=O)c1cc(Br)nn1-c1ncccc1Cl,5
16,CCC(=O)O[C@@H]1C=C2CCC3C(CCC4(C)C3CC[C@@H]4OC(=O)CC)C2CC1 (stereo not given in full),5
17,CCCCOC(=O)c1ccccc1OC(N)=O,5
18,C=CC(C)=CCC1OC1(C)C (stereo not given),5
19,Cc1ccc(Cl)cc1NC(=O)c1cc2ccccc2cc1O,5
20,Brc1c(Br)c(Br)c(-c2c(Br)c(Br)c(Br)c(Br)c2Br)c(Br)c1Br,5
21,CN1CC(CO)CC2c3cccc4c3c(cn4C(C)(C)C)CC21 (stereo not given),4
22,CCCCCCCC(=O)N(CCO)CCO,5
23,CCOC(=O)c1cnn(C)c1S(=O)(=O)NC(=O)Nc1nc(OC)cc(OC)n1,5
24,CCCCCCCC1CCCO1 (stereo not given),5
25,CO[C@H]1C=CO[C@@]2(C)Oc3c(C)c(O)c4c(O)c(c5c(nc6cc(C)ccn65)c4c3C2=O)NC(=O)C(C)=CC=C[C@H](C)[C@H](O)[C@@H](C)[C@@H](O)[C@@H](C)[C@H](OC(C)=O)[C@@H]1C,5
26,NCC[C@H](O)C(=O)N[C@@H]1C[C@H](N)[C@@H](O[C@H]2O[C@H](CN)CC[C@H]2N)[C@H](O)[C@H]1O[C@H]1O[C@H](CO)[C@@H](O)[C@H](N)[C@H]1O,5
27,O=c1c2ccccc2c(=O)c2c1cc(Cl)c1[nH]c3c([nH]c12)c(Cl)cc1c(=O)c2ccccc2c(=O)c13,5

row,Compound,GHS category
1,CCCC(=O)C(C)=O,5
2,Nc1ccc2oc(=O)[nH]c2c1,4
3,COc1ccc(C2NC(=O)CCS2)cc1OC (stereo not given),5
4,C[C@@H](O)[C@H]1C(=O)N2C(C(=O)O)=C(SCCNC=N)C[C@H]12,5
5,COc1ccc(COC(=O)Cc2ccccc2)cc1,5
6,CNC(=O)/C(=N/OC)c1ccccc1COc1cc(C)ccc1C,5
7,COC(=O)CC(C(C)=O)C(=O)OC (stereo not given),5
8,CNCC1CCC(N)C(OC2C(N)CC(N)C(OC3OCC(C)(O)C(NC)C3O)C2O)O1 (stereo not given),5
9,CC(C)c1cc(C(C)C)c(N)c(C(C)C)c1N,4
10,CC(C)OC(=O)c1ccccc1OC(N)=O,5
11,CCC(C)c1cc(S(=O)(=O)O)cc(-n2nc3ccccc3n2)c1O (stereo not given),5
12,CC1Oc2cc(C(=O)c3ccc(Cl)cc3)ccc2N(C)C1=O (stereo not given),5
13,CC(=O)OC1C=C(C)C2CC(=C(C)C)CC2C(C)C1 (stereo not given),5
14,N[C@@H](CSSC[C@H](N)C(=O)O)C(=O)O,5
15,COc1cc(NC(=O)c2cc3ccccc3cc2O)c(OC)cc1Cl,5
16,CCOC(=O)/C(Cl)=C/c1cc(N2C(=O)C3=C(CCCC3)C2=O)ccc1Cl,5
17,CCCCCCCCCCCCBr,5
18,CCCCCCCC/C=C\CCCCCCCCCCCCC,5
19,Cc1cccc2ncc(C(=O)Nc3ccc(F)cc3)c(=O)n12,3
20,CCOP(=S)(OCC)SSSP(=S)(OCC)OCC,5
21,O=C1c2ccc3c4ccc5c6c(ccc(c7ccc(c2c37)C(=O)N1CCc1ccccc1)c64)C(=O)N(CCc1ccccc1)C5=O,5
22,CN(CCO)S(=O)(=O)C(F)(F)C(F)(F)C(F)(F)C(F)(F)F,5
23,FC(F)(F)C(F)(F)C(F)(F)C(F)(F)N(C(F)(F)C(F)(F)C(F)(F)C(F)(F)F)C(F)(F)C(F)(F)C(F)(F)C(F)(F)F,5
24,CC(C)(C)c1ccc2oc(-c3ccc(C=Cc4ccc(-c5ccccc5)cc4)cc3)nc2c1,5
25,CC(=O)[C@@]1(O)CC[C@H]2[C@@H]3C=C(Cl)C4=CC(=O)CC[C@]4(C)[C@H]3CC[C@@]21C,5
26,C=CC(C)(O)CC/C=C(\C)CC/C=C(\C)CCC=C(C)C (stereo not given),5
27,CCOc1ccccc1NC(=O)C(=O)Nc1ccccc1CC,5

row,Compound,GHS category
1,CN(Cc1ccc(C(C)(C)C)cc1)Cc1cccc2ccccc12,5
2,CC(=O)Oc1c(I)cc(I)cc1C(=O)Nc1ccc(Cl)cc1,5
3,C=CC(=C)C,5
4,CN[C@@H]1[C@@H](O)[C@@H](O[C@@H]2[C@@H](O)[C@H](O[C@H]3O[C@H](CN)[C@@H](O)[C@H](O)[C@H]3O)[C@@H](N)C[C@H]2NC(=O)C(O)CN)OC[C@]1(C)O (stereo not given in full),5
5,CCC(=NOC/C=C/Cl)C1=C(O)CC(C2CCOCC2)CC1=O (stereo not given),5
6,C=CCCCCCCCCC(C)CCCCCCCC (stereo not given),5
7,CCOC(=O)[C@H](CCc1ccccc1)N[C@H]1CS[C@H](c2cccs2)CN(CC(=O)O)C1=O,5
8,CCn1c2ccccc2c2ccccc21,5
9,C/C(=C(\CCOC(=O)C(C)C)SS/C(CCOC(=O)C(C)C)=C(/C)N(C=O)Cc1cnc(C)nc1N)N(C=O)Cc1cnc(C)nc1N,5
10,C=CC(=C)CCC=C(C)C,5
11,CCCCOC(=O)C(C)C,5
12,CC(CO)CO,5
13,COCC1CN(c2ccc(OCc3cccc(C#N)c3)cc2)C(=O)O1 (stereo not given),5
14,Cc1cccc(OC(=O)c2ccccc2OC(N)=O)c1,5
15,Oc1c(I)cc(Cl)c2cccnc12,5
16,COc1cc2nc(N3CCC(N(C)C(=O)c4ccco4)CC3)nc(N)c2cc1OC,4
17,CCCc1c(Cc2ccc(-c3ccccc3-c3nn[nH]n3)cc2)c(=O)nc2[nH][nH]c(=O)n12,4
18,Cc1nnc(SCCCSc2nnnn2C)o1,4
19,CCCCCCCCCCCCCCCCOC(=O)OOC(=O)OCCCCCCCCCCCCCCCC,5
20,C/C=C(\C)C(=O)O[C@H]1C[C@@H](OC(C)=O)[C@@]2(C(=O)OC)CO[C@H]3[C@@H](O)[C@@](C)([C@]45O[C@@]4(C)[C@H]4C[C@@H]5O[C@@H]5OC=C[C@@]54O)[C@H]4[C@]1(CO[C@]4(O)C(=O)OC)[C@@H]32,5
21,CC(C)(c1ccc(OCCO)cc1)c1ccc(OCCO)cc1,5
22,C[SiH](C)O[SiH](C)C,5
23,C[C@@]12CC[C@@H]3[C@H](CC=C4C[C@H](OS(=O)(=O)O)CC[C@]43C)[C@H]1CCC2=O (racemic),5
24,OC1(c2ccc(Cl)c(Cl)c2)c2ccccc2C2=NCCCN21 (stereo not given),4
25,CCCCCOC1OC(C)C(O)C(O)C1O (stereo not given),5
26,CC(C)C(O)C(C)(C)CO (stereo not given),5
27,c1ccc2oc(C3(Cn4cncn4)OCCO3)cc2c1,4

row,Compound,GHS category
1,O=C(c1ccccc1)c1cc([N+](=O)[O-])ccc1S(=O)(=O)NCCCN1CCOCC1,4
2,CC(C)OC(=O)C=Cc1ccccc1,5
3,NC(CSCC(=O)O)C(=O)O (stereo not given),5
4,CCCCC/C=C\C=C\C(=O)OCC,5
5,NC[C@@H]1CC[C@@H](N)[C@@H](O[C@H]2[C@H](O)[C@@H](O[C@H]3O[C@H](CO)[C@@H](O)[C@H](N)[C@H]3O)[C@H](N)C[C@@H]2N)O1,5
6,CC(C)=CCN(CC=C(C)C)CCC(C#N)(CCN(CC=C(C)C)CC=C(C)C)c1cccc2ccccc12,4
7,CSCC[C@H](NC(=O)[C@H](Cc1c[nH]c2ccccc12)NC(=O)CCNC(=O)OC(C)(C)C)C(=O)N[C@@H](CC(=O)O)C(=O)N[C@@H](Cc1ccccc1)C(N)=O,3
8,O=C1CC(c2ccccc2)c2cc(Br)ccc2O1 (stereo not given),5
9,O=C1NC(=O)C(N=NC2C(=O)NC(=O)NC2=O)C(=O)N1,5
10,O=C1C=CC(=NNc2ccc(N=Nc3ccc(-c4ccc(NN=C5C=CC(=O)C(C(=O)O)=C5)cc4)cc3)c3ccc(S(=O)(=O)O)cc23)C=C1,5
11,CCCC(=O)OC[C@@H](OC(=O)CCC)[C@@H](OC(=O)CCC)[C@H](Cn1c2nc(=O)[nH]c(=O)c-2nc2cc(C)c(C)cc21)OC(=O)CCC,5
12,CCOC(=O)C1CN(C)C2CCCC(C)N2C1=O (stereo not given),5
13,CCCCCCc1ccc(OP(=O)(Oc2ccccc2)Oc2ccccc2)cc1,5
14,N[C@@H](CSCC(=O)O)C(=O)O,5
15,Cc1cc(C)c(C(=O)P(=O)(C(=O)c2c(C)cc(C)cc2C)c2ccccc2)c(C)c1,5
16,CC[n+]1c(C=Cc2ccc(N3CCCC3)cc2)cccc1C=Cc1ccc(N2CCCC2)cc1,5
17,CCCCN(CCCC)C(=S)SCSC(=S)N(CCCC)CCCC,5
18,C=C1c2cccc(O)c2C(=O)C2=C(O)[C@]3(O)C(=O)C(C(N)=O)=C(O)[C@@H](N(C)C)[C@@H]3[C@@H](O)[C@H]12,5
19,COC(=O)c1ccc(CNS(C)(=O)=O)cc1S(=O)(=O)NC(=O)Nc1nc(OC)cc(OC)n1,5
20,CCCCCNCC(N)=O,5
21,Cc1ccc(C(=O)O)c(Oc2ccccc2CC(=O)O)c1C,5
22,CC1CC(C)C(C)CC1C (stereo not given),5
23,O=c1n(CCO)c(=O)n(CCO)c(=O)n1CCO,5
24,O=C(Nc1cc(Cl)c(Cl)cc1Cl)c1cc(Cl)cc(-c2ccccc2)c1O,5
